Assay results as given in patent US10053428B2, “5-aminotetrahydroquinoline-2-carboxylic acids and their use” (BAYER PHARMA AKTIENGESELLSCHAFT, priority 2012, dated 2018).

How the values were obtained:
saphenous artery rings = assay: Vasorelaxant effect in vitro (phenylephrine-contracted saphenous artery rings); parameters: species or system Rabbits; details: rabbit saphenous artery rings; read-out: IC50 (concentration reducing phenylephrine-induced contraction by 50%)
Experimental: B-3. Vasorelaxant Effect In Vitro
Rabbits are anaesthetized and sacrificed by intravenous injection of thiopental sodium (about 50 mg/kg) and exsanguinated. The saphenous artery is removed and divided into rings 3 mm wide. The rings are mounted singly on in each case a pair of triangular hooks open at the end and made of 0.3 mm-thick special wire (Remanium®). Each ring is placed under an initial tension in 5 ml organ baths with Krebs-Henseleit solution which is at 37° C., is gassed with carbogen and has the following composition: NaCl 119 mM; KCl 4.8 mM; CaCl2×2 H2O 1 mM; MgSO4×7H2O 1.4 mM; KH2PO4 1.2 mM; NaHCO3 25 mM; glucose 10 mM; bovine serum albumin 0.001%. The force of contraction is detected with Statham UC2 cells, amplified and digitized via A/D converters (DAS-1802 HC, Keithley Instruments, Munich) and recorded in parallel on chart recorders. Contractions are induced by addition of phenylephrine.
After several (generally 4) control cycles, the substance to be investigated is added in each further run in increasing dosage, and the level of the contraction achieved under the influence of the test substance is compared with the level of the contraction reached in the last preceding run. The concentration necessary to reduce the contraction reached in the preceding control by 50% is calculated from this (IC50). The standard application volume is 5 μl. The proportion of DMSO in the bath solution corresponds to 0.1%.

[1] = test system: recombinant guanylate cyclase reporter cell line; assay: sGC-activating activity in the CHO reporter cell in vitro; type: cell-based; details: read-out: MEC (minimum effective concentration)
Experimental: B-2. Action at a Recombinant Guanylate Cyclase Reporter Cell Line
The cellular action of the compounds according to the invention is determined at a recombinant guanylate cyclase reporter cell line, as described in F. Wunder et al., Anal. Biochem. 32, 104-112 (2005).

IC50 (saphenous artery rings): 0.1 nM
SMILES: O=C(O)CCCCN(CCc1ccccc1OCc1ccc(CCc2ccccc2)cc1)C1CCCc2nc(C(=O)O)ccc21 (single isomer, unassigned; enantiomer 1) [Example 13, 5-{(4-Carboxybutyl)[2-(2-{[4-(2-phenylethyl)benzyl]oxy}phenyl)ethyl]amino}-5,6,7,8-tetrahydroquinoline-2-carboxylic acid (Enantiomer 1)]
minimal effective concentration [1]: 0.3 nM
